{
  "source": "patent US4522946A",
  "about": "“Dioxy hexahydrobenzo[6,7]cyclohepta[1,2,3-de]isoquinoline derivatives useful as neuroleptic agents” (Ayerst, McKenna & Harrison, Inc., priority 1983, dated 1985)",
  "key": {"[1]": {"tested_on": "conditioned avoidance response", "assay": "conditioned avoidance response test (CAR), neuroleptic action", "type": "in vivo", "details": "intraperitoneal, mg per kg body weight; for ED50: ip, read-out: CAR, ED50 (dose which caused a 50% failure in avoidance response)"}, "[2]": {"tested_on": "tremorine-induced tremors in mice", "assay": "antagonism of tremorine-induced tremors (ITIT), lack of cataleptic activity", "type": "in vivo", "details": "intraperitoneal, mg per kg body weight; for ED50: Mus musculus, ip, read-out: ITIT, ED50 (dose which caused a 50% inhibition of tremorine induced tremors)"}, "[3]": {"details": "Sayers and Amsler 1977; cited from earlier work"}},
  "note": "Where a name gives a salt, the structure may show the parent alone.",
  "data": [
    {"smiles": "CN1C[C@H]2c3ccccc3CCc3c(O)c(O)cc(c32)[C@@H]1Cc1ccccc1", "note": "(relative stereo) [Example 33, (3,12b-trans)-2-methyl-3-(phenylmethyl)-1,2,3,7,8,12b-hexahydrobenzo[6,7]-cyclohepta[1,2,3-de]isoquinoline-5,6-diol hydrobromide]", "values": [
      {"measurement": "ED50", "setting": "[1]", "result": "2 ± 0.2", "unit": "mg/kg"},
      {"measurement": "ED50", "setting": "[2]", "result": "9.2 ± 7.2", "unit": "mg/kg"}
    ]},
    {"smiles": "Br.CC(C)C1c2c(O)c(O)cc3c2C(CN1C)c1ccccc1CC3", "note": "(stereo not drawn) [Example 25, (3,12b-trans)-2-methyl-3-(1-methylethyl)-1,2,3,7,8,12b-hexahydrobenzo[6,7]cyclohepta[1,2,3-de]isoquinoline-4,5-diol hydrobromide]", "values": [
      {"measurement": "CAR, ED50 (dose which caused a 50% failure in avoidance response)", "setting": "[1]", "result": "2.4 ± 0.6 mg/kg, i.p."},
      {"measurement": "ITIT, ED50 (dose which caused a 50% inhibition of tremorine induced tremors)", "setting": "[2]", "result": "17.5 ± 6.0 mg/kg, i.p."}
    ]},
    {"smiles": "CC[C@H]1c2c(O)c(OC)cc3c2[C@@H](CN1C)c1ccccc1CC3", "note": "(relative stereo) [Example 44, (3,12b-trans)-3-ethyl-5-methoxy-2-methyl-1,2,3,7,8,12b-hexahydrobenzo[6,7]-cyclohepta[1,2,3-de]isoquinolin-4-ol]", "values": [
      {"measurement": "CAR, ED50 (dose which caused a 50% failure in avoidance response)", "setting": "[1]", "result": "3.0 ± 0.8 mg/kg, i.p."},
      {"measurement": "ITIT, ED50 (dose which caused a 50% inhibition of tremorine induced tremors)", "setting": "[2]", "result": "6.8 ± 2.0 mg/kg, i.p."}
    ]},
    {"smiles": "Br.CN1CC2c3ccccc3CCc3cc(O)c(O)c(c32)C1Cc1ccccc1", "note": "(stereo not drawn) [Example 26, (3,12b-trans)-2-metyl-3-(phenylmethyl)-1,2,3,7,8,12b-hexahydrobenzo[6,7]cyclohepta[1,2,3-de]isoquinoline-4,5-diol hydrobromide]", "values": [
      {"measurement": "CAR, ED50 (dose which caused a 50% failure in avoidance response)", "setting": "[1]", "result": "1.6 ± 0.3 mg/kg, i.p."},
      {"measurement": "ITIT, ED50 (dose which caused a 50% inhibition of tremorine induced tremors)", "setting": "[2]", "result": "22 ± 5.7 mg/kg, i.p."}
    ]},
    {"smiles": "Br.CC1c2c(O)c(O)cc3c2C(CN1C)c1ccccc1CC3", "note": "(stereo not drawn) [Example 22, (3,12b-trans)-2,3-dimethyl-1,2,3,7,8,12b-hexahydrobenzo[6,7]cyclohepta[1,2,3-de]isoquinoline-4,5-diol hydrobromide]", "values": [
      {"measurement": "CAR, ED50 (dose which caused a 50% failure in avoidance response)", "setting": "[1]", "result": "4.4 ± 2.0 mg/kg, i.p."},
      {"measurement": "ITIT, ED50 (dose which caused a 50% inhibition of tremorine induced tremors)", "setting": "[2]", "result": "13 ± 10.4 mg/kg, i.p."}
    ]},
    {"smiles": "CC[C@H]1c2cc(O)c(O)c3c2[C@@H](CN1C)c1ccccc1CC3", "note": "(relative stereo) [Example 32, (3,12b-trans)-3-ethyl-2-methyl-1,2,3,7,8,12b-hexahydrobenzo[6,7]-cyclohepta[1,2,3-de]isoquinoline-5,6-diol hydrobromide]", "values": [
      {"measurement": "ED50", "setting": "[1]", "result": "4.2 ± 0.4", "unit": "mg/kg"},
      {"measurement": "ED50", "setting": "[2]", "result": "21 ± 1.6", "unit": "mg/kg"}
    ]},
    {"smiles": "Br.CCCC1c2c(O)c(O)cc3c2C(CN1C)c1ccccc1CC3", "note": "(stereo not drawn) [Example 24, (3,12b-trans)-2-methyl-3-propyl-1,2,3,7,8,12b-hexahydrobenzo[6,7]cyclohepta[1,2,3-de]isoquinoline-4,5-diol hydrobromide]", "values": [
      {"measurement": "CAR, ED50 (dose which caused a 50% failure in avoidance response)", "setting": "[1]", "result": "4.4 ± 1.4 mg/kg, i.p."},
      {"measurement": "ITIT, ED50 (dose which caused a 50% inhibition of tremorine induced tremors)", "setting": "[2]", "result": "11 ± 4.3 mg/kg, i.p."}
    ]},
    {"smiles": "CN1CCN(C2=Nc3cc(Cl)ccc3Nc3ccccc32)CC1", "note": "[clozapine]", "values": [
      {"measurement": "neuroleptic action without the extrapyramidal side effects (in words)", "setting": "[3]", "result": "have shown this unusual pharmacological profile"}
    ]},
    {"smiles": "Br.CC[C@H]1c2c(O)c(O)cc3c2[C@H](CN1C)c1ccccc1CC3", "note": "(relative stereo) [Example 23, (3,12b-trans)-3-ethyl-2-methyl-1,2,3,7,8,12b-hexahydrobenzo[6,7]cyclohepta[1,2,3-de]isoquinoline-4,5-diol hydrobromide]", "values": [
      {"measurement": "CAR, ED50 (dose which caused a 50% failure in avoidance response)", "setting": "[1]", "result": "1.5 ± 0.4 mg/kg, i.p."},
      {"measurement": "ITIT, ED50 (dose which caused a 50% inhibition of tremorine induced tremors)", "setting": "[2]", "result": "18 ± 7.6 mg/kg, i.p."}
    ]},
    {"smiles": "COc1cc2c3c(c1O)C(Cc1ccccc1)N(C)CC3c1ccccc1CC2", "note": "(stereo not drawn) [Example 37, (3,12b-trans)-5-Methoxy-2-methyl-3-(phenylmethyl)-1,2,3,7,8,12b-hexahydrobenzo[6,7]-cyclohepta[1,2,3-de]isoquinolin-4-ol]", "values": [
      {"measurement": "CAR, ED50 (dose which caused a 50% failure in avoidance response)", "setting": "[1]", "result": "5.4 ± 1.8 mg/kg, i.p."},
      {"measurement": "ITIT, ED50 (dose which caused a 50% inhibition of tremorine induced tremors)", "setting": "[2]", "result": "8.2 ± 2.4 mg/kg, i.p."}
    ]}
  ]
}
